Results from ChEMBL document CHEMBL4184210, “Optimization of novel monobactams with activity against carbapenem-resistant Enterobacteriaceae - Identification of LYS228” (Bioorg Med Chem Lett, 2018).
≈ marks a conversion by molar mass, not a printed value.

Assays:
Escherichia coli [1] = experiment: microbe, parasite or virus in culture
Description: Antimicrobial activity against Escherichia coli expressing beta-lactamase P99 by CLSI broth microdilution method

Escherichia coli [2] = experiment: microbe, parasite or virus in culture; remark: listed apart in the source
Description: Antimicrobial activity against Escherichia coli expressing beta-lactamase TEM-10 by CLSI broth microdilution method

[3] = Volume of distribution in dog at 10 mg/kg, iv; assay type: ADME, organism-based, Canis lupus familiaris; details: in vivo
Klebsiella pneumoniae [4] = experiment: Antimicrobial activity against Klebsiella pneumoniae expressing beta-lactamase NDM-1 infected in neutropenic mouse thigh infection model assessed as fT>MIC for causing 1 log10 CFU reduction in bacterial load dosed subcutaneously every 4 hrs; assay type: functional
[5] = molecular target: T1, GABA A receptor alpha-2/beta-2/gamma-2 (Homo sapiens, UniProt P18507+P47869+P47870); experiment: Inhibition of recombinant human GABA A alpha2beta2gamma2 receptor expressed in CHO-K1 cells incubated at room temperature for 15 mins before the GABA addition fluorescence spectrometry; assay type: cell-based
T1 sequence (P47870 whole entry): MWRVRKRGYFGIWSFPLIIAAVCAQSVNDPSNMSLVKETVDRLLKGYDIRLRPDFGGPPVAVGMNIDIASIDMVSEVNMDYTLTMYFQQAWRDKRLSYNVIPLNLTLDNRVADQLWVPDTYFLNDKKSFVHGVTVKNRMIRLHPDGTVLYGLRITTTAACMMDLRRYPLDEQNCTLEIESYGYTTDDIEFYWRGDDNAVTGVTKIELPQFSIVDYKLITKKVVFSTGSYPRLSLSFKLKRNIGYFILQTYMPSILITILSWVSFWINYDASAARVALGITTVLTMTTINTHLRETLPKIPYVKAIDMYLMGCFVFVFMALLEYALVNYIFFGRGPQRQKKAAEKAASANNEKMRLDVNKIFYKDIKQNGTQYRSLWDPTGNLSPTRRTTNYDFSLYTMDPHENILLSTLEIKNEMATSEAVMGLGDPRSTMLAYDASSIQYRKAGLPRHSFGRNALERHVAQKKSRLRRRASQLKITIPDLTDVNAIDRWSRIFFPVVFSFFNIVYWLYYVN
T1 sequence (P18507 whole entry): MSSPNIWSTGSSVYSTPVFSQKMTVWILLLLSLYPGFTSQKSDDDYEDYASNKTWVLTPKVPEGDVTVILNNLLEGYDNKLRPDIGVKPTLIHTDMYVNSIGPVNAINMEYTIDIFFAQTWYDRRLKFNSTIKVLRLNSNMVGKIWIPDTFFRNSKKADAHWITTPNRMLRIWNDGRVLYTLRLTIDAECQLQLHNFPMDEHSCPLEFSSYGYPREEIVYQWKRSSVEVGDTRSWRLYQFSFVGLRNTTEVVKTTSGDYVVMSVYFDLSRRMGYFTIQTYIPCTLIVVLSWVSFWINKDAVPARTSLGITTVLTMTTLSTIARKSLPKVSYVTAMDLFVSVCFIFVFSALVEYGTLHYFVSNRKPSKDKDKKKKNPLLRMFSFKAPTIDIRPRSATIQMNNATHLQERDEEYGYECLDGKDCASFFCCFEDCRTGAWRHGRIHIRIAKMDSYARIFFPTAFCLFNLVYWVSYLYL
T1 sequence (P47869 whole entry): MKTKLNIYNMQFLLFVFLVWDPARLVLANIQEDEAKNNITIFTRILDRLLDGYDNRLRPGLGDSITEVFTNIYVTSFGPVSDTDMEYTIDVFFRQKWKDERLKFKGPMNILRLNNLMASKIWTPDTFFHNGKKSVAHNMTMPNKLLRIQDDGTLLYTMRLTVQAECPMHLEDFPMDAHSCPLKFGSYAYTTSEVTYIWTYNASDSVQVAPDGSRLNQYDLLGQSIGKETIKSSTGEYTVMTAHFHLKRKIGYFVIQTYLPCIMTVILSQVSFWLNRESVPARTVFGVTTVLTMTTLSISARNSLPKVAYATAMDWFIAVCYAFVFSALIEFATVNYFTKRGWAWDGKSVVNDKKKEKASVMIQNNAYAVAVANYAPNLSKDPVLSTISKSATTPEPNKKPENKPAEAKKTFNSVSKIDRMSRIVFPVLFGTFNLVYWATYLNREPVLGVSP

Escherichia coli [6] = experiment: microbe, parasite or virus in culture; remark: listed apart in the source
Description: Antimicrobial activity against Escherichia coli expressing beta-lactamase TEM-16 by CLSI broth microdilution method

Escherichia coli [7] = experiment: microbe, parasite or virus in culture; remark: listed apart in the source
Description: Antimicrobial activity against Escherichia coli expressing beta-lactamase NMC-A by CLSI broth microdilution method

[8] = Volume of distribution in mouse at 10 mg/kg, iv; assay type: ADME, organism-based; details: in vivo
Escherichia coli [9] = experiment: microbe, parasite or virus in culture; remark: listed apart in the source
Description: Antimicrobial activity against Escherichia coli expressing beta-lactamase Oxa-10 by CLSI broth microdilution method

Escherichia coli [10] = experiment: microbe, parasite or virus in culture; remark: listed apart in the source
Description: Antimicrobial activity against Escherichia coli expressing beta-lactamase Oxa-181 by CLSI broth microdilution method

Escherichia coli [11] = experiment: microbe, parasite or virus in culture; remark: listed apart in the source
Description: Antimicrobial activity against Escherichia coli expressing beta-lactamase TEM-121 by CLSI broth microdilution method

Escherichia coli [12] = experiment: Antimicrobial activity against Escherichia coli expressing beta-lactamase KPC-2 by CLSI broth microdilution method; assay type: functional
[13] = Half life in rat at 10 mg/kg, iv; assay type: ADME, organism-based; details: in vivo
Escherichia coli [14] = experiment: microbe, parasite or virus in culture; remark: listed apart in the source
Description: Antimicrobial activity against Escherichia coli expressing beta-lactamase Oxa-40 by CLSI broth microdilution method

[15] = Stability assessed as assessed as Escherichia coli beta-lactamase KPC-2-mediated compound hydrolysis by measuring molar enthalpy of hydrolysis at 1 mM by isothermal titration calorimetry; assay type: ADME; details: 1000 µM
Escherichia coli [16] = experiment: microbe, parasite or virus in culture; remark: listed apart in the source
Description: Antimicrobial activity against Escherichia coli expressing beta-lactamase Oxa-160 by CLSI broth microdilution method

Escherichia coli [17] = experiment: microbe, parasite or virus in culture; remark: listed apart in the source
Description: Antimicrobial activity against Escherichia coli expressing beta-lactamase Oxa-23 by CLSI broth microdilution method

Escherichia coli [18] = experiment: microbe, parasite or virus in culture; remark: listed apart in the source
Description: Antimicrobial activity against Escherichia coli expressing beta-lactamase PER-2 by CLSI broth microdilution method

Mus musculus = experiment: Toxicity in CD1 mouse assessed as induction of convulsion at 100 mg/kg, icv measured 1 hr after post dose; assay type: organism-based; details: in vivo, icv_or_intrathecal
Klebsiella pneumoniae [19] = experiment: Antimicrobial activity against Klebsiella pneumoniae expressing beta-lactamase NDM-1 by CLSI broth microdilution method; assay type: functional
Escherichia coli [20] = experiment: microbe, parasite or virus in culture; remark: listed apart in the source
Description: Antimicrobial activity against Escherichia coli expressing beta-lactamase SME-1 by CLSI broth microdilution method

in vitro [21] = details: human, plasma
Description: Protein binding in human plasma

Escherichia coli [22] = experiment: Antimicrobial activity against Escherichia coli expressing beta-lactamase TEM-1 by CLSI broth microdilution method; assay type: functional
in vitro [23] = details: dog, plasma
Description: Protein binding in dog plasma

[24] = AUC in rat at 10 mg/kg, iv; assay type: ADME, organism-based; details: in vivo
Pseudomonas aeruginosa = experiment: Antimicrobial activity against Pseudomonas aeruginosa expressing delta-mexB/mexXY/delta-ampDh2/ delta-ampD by CLSI broth microdilution method; assay type: functional
Escherichia coli [25] = experiment: microbe, parasite or virus in culture; remark: listed apart in the source
Description: Antimicrobial activity against Escherichia coli expressing beta-lactamase Oxa-225 by CLSI broth microdilution method

[26] = AUC in mouse at 10 mg/kg, iv; assay type: ADME, organism-based; details: in vivo
Escherichia coli [27] = experiment: microbe, parasite or virus in culture; remark: listed apart in the source
Description: Antimicrobial activity against Escherichia coli expressing beta-lactamase TEM-24 by CLSI broth microdilution method

Escherichia coli [28] = experiment: microbe, parasite or virus in culture; remark: listed apart in the source
Description: Antimicrobial activity against Escherichia coli expressing beta-lactamase IMP-1 by CLSI broth microdilution method

Row | Compound | MIC (Escherichia coli [1]) [µg/mL] | MIC (Escherichia coli [2]) [µg/mL] | IC50 [5] [µM] | MIC (Escherichia coli [6]) [µg/mL] | MIC (Escherichia coli [7]) [µg/mL] | MIC (Escherichia coli [9]) [µg/mL] | MIC (Escherichia coli [10]) [µg/mL] | MIC (Escherichia coli [11]) [µg/mL] | MIC (Escherichia coli [12]) [µg/mL] | MIC (Escherichia coli [14]) [µg/mL] | MIC (Escherichia coli [16]) [µg/mL] | MIC (Escherichia coli [17]) [µg/mL] | MIC (Escherichia coli [18]) [µg/mL] | Activity (Mus musculus) | MIC (Escherichia coli [20]) [µg/mL] | MIC (Escherichia coli [22]) [µg/mL] | MIC (Pseudomonas aeruginosa) [µg/mL] | MIC (Escherichia coli [25]) [µg/mL] | MIC (Escherichia coli [27]) [µg/mL] | MIC (Escherichia coli [28]) [µg/mL] | further results
1 | Nc1nc(/C(=N/OC2(C(=O)O)CC2)C(=O)N[C@@H]2C(=O)N(S(=O)(=O)O)[C@@H]2CN2CCOC2=O)cs1 (stereo in doubt) [ANCREMONAM] | 0.25 (≈ 0.482 µM) | 1 (≈ 1.93 µM) | > 2400 | 0.25 (≈ 0.482 µM) | 0.125 (≈ 0.241 µM) | 0.125 (≈ 0.241 µM) | 0.125 (≈ 0.241 µM) | 0.25 (≈ 0.482 µM) | 0.125 (≈ 0.241 µM) | 0.125 (≈ 0.241 µM) | 1 (≈ 1.93 µM) | 0.125 (≈ 0.241 µM) | 128 (≈ 247 µM) | Non-Toxic | 0.125 (≈ 0.241 µM) | 0.25 (≈ 0.482 µM) | 64 (≈ 123 µM) | 1 (≈ 1.93 µM) | 0.5 (≈ 0.964 µM) | 0.125 (≈ 0.241 µM) | Vd [3]: 0.2 L/kg; fT>MIC (Klebsiella pneumoniae [4]): 65%; Vd [8]: 0.3 L/kg; half-life [13]: 36 min; Stability [15]: Stable; MIC (Klebsiella pneumoniae [19]): 1 µg/mL (≈ 1.93 µM); fraction unbound (in vitro [21]): 0.87; fraction unbound (in vitro [23]): 0.76; AUC [24]: 19000 ng·h/mL; AUC [26]: 10000 ng·h/mL
2 | N=C(N)NCc1cnn(C[C@@H]2[C@H](NC(=O)/C(=N\OC3(C(=O)O)CC3)c3csc(N)n3)C(=O)N2S(=O)(=O)O)n1 (stereo in doubt) | 0.25 (≈ 0.437 µM) | 1 (≈ 1.75 µM) | 190 | 0.5 (≈ 0.875 µM) | 0.125 (≈ 0.219 µM) | 0.25 (≈ 0.437 µM) | 0.125 (≈ 0.219 µM) | 0.5 (≈ 0.875 µM) | 0.125 (≈ 0.219 µM) | 0.125 (≈ 0.219 µM) | 0.125 (≈ 0.219 µM) | 0.25 (≈ 0.437 µM) | > 64 | – | 0.06 (≈ 0.105 µM) | 0.125 (≈ 0.219 µM) | 32 (≈ 56 µM) | 0.25 (≈ 0.437 µM) | 0.25 (≈ 0.437 µM) | 0.125 (≈ 0.219 µM) | –
3 | NC[C@@H]1CN(C[C@@H]2[C@H](NC(=O)/C(=N\OC3(C(=O)O)CC3)c3csc(N)n3)C(=O)N2S(=O)(=O)O)C(=O)O1 (stereo in doubt) | 0.125 (≈ 0.228 µM) | 1 (≈ 1.83 µM) | 1340 | 0.125 (≈ 0.228 µM) | 0.125 (≈ 0.228 µM) | 0.125 (≈ 0.228 µM) | 0.25 (≈ 0.457 µM) | ≤ 0.06 | 0.125 (≈ 0.228 µM) | 0.125 (≈ 0.228 µM) | 0.25 (≈ 0.457 µM) | ≤ 0.06 | > 32 | Toxic | 0.06 (≈ 0.11 µM) | 0.125 (≈ 0.228 µM) | > 32 | 0.5 (≈ 0.913 µM) | 0.125 (≈ 0.228 µM) | 0.06 (≈ 0.11 µM) | –
4 | N=C(N)NCc1cn(C[C@@H]2[C@H](NC(=O)/C(=N\OC3(C(=O)O)CC3)c3csc(N)n3)C(=O)N2S(=O)(=O)O)nn1 (stereo in doubt) | 0.25 (≈ 0.437 µM) | 0.5 (≈ 0.875 µM) | 890 | 0.25 (≈ 0.437 µM) | 0.125 (≈ 0.219 µM) | 0.25 (≈ 0.437 µM) | 0.25 (≈ 0.437 µM) | 1 (≈ 1.75 µM) | 0.125 (≈ 0.219 µM) | 0.125 (≈ 0.219 µM) | 0.25 (≈ 0.437 µM) | 0.25 (≈ 0.437 µM) | > 64 | – | 0.06 (≈ 0.105 µM) | 0.125 (≈ 0.219 µM) | – | 0.25 (≈ 0.437 µM) | 0.25 (≈ 0.437 µM) | 0.125 (≈ 0.219 µM) | –
